Target: 2-acylglycerol O-acyltransferase 2 (Homo sapiens, UniProt Q3SYC2)
Assay: Inhibitory Activity
Method: Solutions of the compounds of the present invention in DMSO were each aliquoted into 0.2-μL portions in a 384-well polystyrene microplate produced by Corning Incorporated, and 5 μL of an enzyme solution prepared with an assay buffer (100 mmol/L phosphate buffer (pH 7.4) containing 2 mmol/L DTT) and 5 μL of a substrate solution (100 mmol/L phosphate buffer (pH 7.4), 30 μmol/L 2-Oleoylglycerol, 10 μmol/L Oleoyl-CoA) were added thereto, and the resultant was stirred and centrifuged, and incubated in a moist chamber at room temperature for 1 hour. After enzymatic reaction, 50 μL of a quenching solution (containing 0.2 μmol/L Diolein-d5, 0.4% formic acid, and 50% isopropanol) containing Internal Standard (IS) was added to terminate the reaction, and the resultant was sealed in a plate produced by Shimadzu GLC Ltd., and then stirred and centrifuged, and measurement was performed by using an electrospray ionization method with a RapidFire360 and Agilent 6550 Q-TOF mass spectrometer. Diolein as a reaction product (P) of 2-Oleoylglycerol as the substrate and an ammonium adduct ion of the IS were detected, and the peak intensity ratio, P/IS, was calculated from the peak heights to evaluate the inhibitory activity. Inhibitory activities with/without addition of enzyme were defined as Control (+)/Control (−), respectively, and the respective % inhibitions were defined as 0% inhibition and 100% inhibition. The inhibitory activity was calculated from formula below with TIBCO Spotfire (produced by TIBCO Software Inc.):Inhibitory activity (%)=[1−{Sample−Control(−)}/{Control(+)−Control(−)}]*100where Sample indicates a peak intensity ratio: P/IS, when the compound of the present invention was added.

2-acylglycerol O-acyltransferase 2, sequence (Q3SYC2 whole entry): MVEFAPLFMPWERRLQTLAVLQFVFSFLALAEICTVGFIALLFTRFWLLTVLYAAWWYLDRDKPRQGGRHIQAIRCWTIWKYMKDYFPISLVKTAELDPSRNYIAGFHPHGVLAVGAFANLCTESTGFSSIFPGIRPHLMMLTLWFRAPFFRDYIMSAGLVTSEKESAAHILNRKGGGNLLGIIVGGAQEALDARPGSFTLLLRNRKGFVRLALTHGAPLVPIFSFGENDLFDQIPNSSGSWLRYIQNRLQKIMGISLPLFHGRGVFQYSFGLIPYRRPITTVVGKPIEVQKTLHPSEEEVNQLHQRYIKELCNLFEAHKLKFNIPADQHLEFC

C#Cc1ccc(-n2nc3c(c2C(=O)NS(=O)(=O)C2CC2)C(=O)N[C@@]2(CCc4cc(OCC(F)(F)F)ccc42)C3)nc1 [US11198695, Example II-201]
IC50: 12.1 nM

CS(=N)(=O)CC(=O)Nc1c2c(nn1-c1ccc(C(F)F)nn1)C[C@]1(CCc3cc(OCC(F)(F)F)ccc31)NC2=O (stereo partly drawn) [US11198695, Example II-281]
IC50: < 1 nM

COc1ccc(-n2nc3c(c2NC(=O)CS(C)(=O)=O)C(=O)N[C@]2(CCc4cc(OCC(F)(F)F)ccc42)C3)cc1 [US11198695, Example I-268]
IC50: 26 nM

From BindingDB's records for patent US11198695 (SHIONOGI & CO., LTD., 2021)
